Tested on: rat uterine horn implants in the peritoneal cavity
Test: Rat model for endometriosis
Type: in vivo
Conditions: 14 days; for implant volume: FIG. 1; for implant weight: FIG. 2
From the text: FIG. 1 compares the mean volume of rat uterine horn implants in the peritoneal cavity of rats before and after 14 days of administration of a cyclooxygenase-2-selective inhibitor.
FIG. 2 compares the in mean weight of rat uterine horn implants in the peritoneal cavity of rats before and after 14 days of administration of a cyclooxygenase-2-selective inhibitor.
Rat Model for Endometriosis:
In this model 5×5 mm sections of rat uterine hom are implanted in the peritoneal cavity (extra uterine endometrial wall) of subject rats. Four weeks after transplantation of the endometrial tissues, rats were anesthetized with Telazol (20 mg/kg, IP, Fort Dodge Animal Health, Fort Dodge, Iowa), Oxymorphone (0.2 mg/kg SC, Henry Schein, Melville, N.Y.) and immobilized on a standard rat operating board. The surgical site was shaved and cleaned using three cycles of Betadine/alcohol or DuraPrep® (3M, St. Paul, Minn.). Using aseptic technique, an incision was made through the skin, SC and muscle layers. The growth of the explant was evaluated for size and acceptance/rejection. On gross examination, the endometrial implants appeared as uni-loculated (occasional as multilobulated) cystic masses filled with clear/light yellowish or dark brown serous fluid. In some instances, at the time of 2nd laparotomy, partial or complete adhesions from connective tissue, mesentry, and bowel to the implants were noted. In those instances, a careful separation was executed, avoiding the rupture the implants. While having a clear vision of the implants, the length, width and height of the implant was measured using a sterile Jameson Caliper (BRI, Rockville, Md.), and documented. The abdominal incisions were closed by using 4-0 chromic gut (Ethicon). The rats were observed until fully ambulatory.
More animals than required for the study were used for surgery. After the 2nd laparotomy, animals were assigned to control or treated groups in an attempt to equalize the endometrium implant size between groups. The rats bearing implant with clear/light yellowish fluid were used in study group selection. The rats bearing implant with dark brown fluid considered as hemorrhagic solid mass were excluded from the study.
Treatment with selected drug therapy started after 1 day of post-surgical recovery. Rats were given the test compound, the cyclooxygenase-2 selective inhibitor Compound A, or vehicle alone or Raloxifene (10 mpk) or Lupron Depot (1 mpk) for a period of 14 days. At the end of the 14-day treatment period, the animals were euthanized at pro-estrus cycle which was confirmed by vaginal smear. Necropsy involved opening the abdomen and evaluating the implant size. The implant and right uterine horn were excised for wet weighing.
Compound A has the following structure: [drawing 1] […]

## CS(=O)(=O)c1ccc(C2COC(=O)C2c2ccc(F)c(F)c2)cc1 (stereo not shown) [Compound A]
1 mpk, BID by oral gavage
  implant volume: not significant at the 95 percent confidence level
  implant weight: not significant at the 95 percent confidence level
10 mpk, BD by oral gavage
  implant volume: reduce implant volume and weight to a significant degree at the 95 percent confidence level
  implant weight: reduce implant volume and weight to a significant degree at the 95 percent confidence level

From patent US20060173062A1, “Use of selective cyclooxygenase-2 inhibitors for the treatment of endometriosis” (priority 2003, published 2006)
